Measured values taken from patent US8614201B2 (Janssen Pharmaceutica NV, priority 2009, dated 2013).

Biological target: Human TRPA1 (Homo sapiens, UniProt O75762)
Assay: Assay 1: In vitro cellular testing of TRPA1 modulation (CHO-TREx, Fluo-3 calcium fluorescence, AITC agonist)
Type: cell-based
Design: expressed in transfected cells; host or cells: CHO-TREx cells (Invitrogen), vector pcDNA4/TO
Settings: CHO-TREx cells expressing human TRPA1; Fluo-3 fluorescence (FLIPR/Tetra); agonist 15 μM allyl isothiocyanate (AITC); 30 minute antagonist incubation
Protocol: Assay 1: In Vitro Cellular Testing of TRPA1 Modulation
Human TRPA1 (NCBI accession number NM_007332.1) was cloned into pcDNA4/TO. CHO-TREx cells (Invitrogen, Carlsbad, Calif.) were stably transfected with pcDNA4/TO-TRPA1 using lipofection to generate a clonal cell line that expressed human TRPA1 in a tetracycline-inducible manner. Culture medium used was Ham's F-12 supplemented with 10% fetal bovine serum, 2 mM L-glutamine, 5 μg/ml blasticidin and 200 μg/ml zeocin. Cells were seeded in black-walled clear-bottom 96-well plates at a density of 50,000 cells per well and cultured overnight at 37° C. with 5% CO2 in culture medium supplemented with 1 μg/ml tetracycline. On the day of the experiment, cells were washed 3 times with HEPES buffered saline (in mM: NaCl 137, MgCl2 0.5, KCl 2, dextrose 5, CaCl2 2 and HEPES 10; pH 7.4). Cells were then loaded with calcium-sensitive fluorescent dye by incubation in the presence of 4 μM Fluo-3 AM (TefLabs, Austin, Tex.) at room temperature in the dark for 60 minutes. After incubation with dye, cells were washed in assay buffer and, if appropriate, antagonists were added at this time. Following a further 30 minute incubation, cells were assayed using a Fluorometric Imaging Plate Reader (FLIPR™) or a Tetra (both manufactured by Molecular Devices, CA) to simultaneously monitor Fluo-3 fluorescence in all wells (λexcitation=488 nm, λemission=540 nm). Changes in fluorescence were monitored for 3 minutes after the addition of 15 μM allyl isothiocyanate (AITC) as an agonist. Concentration-dependence of receptor blocking was determined by exposing each well of cells in duplicate rows of a 96-well plate to a serial dilution of test compound. The concentration series usually started at 10 μM with a three-fold serial decrement in concentration. The magnitude of the response to agonist challenge was determined by measuring the fluorescence before and 3 minutes after the addition of the agonist. The degree of blocking was determined by comparing the response to that of negative (no added antagonist) and positive (10 μM ruthenium red) control wells. Data were analyzed using a non-linear regression program (Origin; OriginLab, MA) to fit the concentration-response data to a Hill function. Antagonist potencies were determined as the concentration required to produce 50% reduction in the response as compared to the negative and positive controls.

Sequence of Human TRPA1 (O75762 whole entry): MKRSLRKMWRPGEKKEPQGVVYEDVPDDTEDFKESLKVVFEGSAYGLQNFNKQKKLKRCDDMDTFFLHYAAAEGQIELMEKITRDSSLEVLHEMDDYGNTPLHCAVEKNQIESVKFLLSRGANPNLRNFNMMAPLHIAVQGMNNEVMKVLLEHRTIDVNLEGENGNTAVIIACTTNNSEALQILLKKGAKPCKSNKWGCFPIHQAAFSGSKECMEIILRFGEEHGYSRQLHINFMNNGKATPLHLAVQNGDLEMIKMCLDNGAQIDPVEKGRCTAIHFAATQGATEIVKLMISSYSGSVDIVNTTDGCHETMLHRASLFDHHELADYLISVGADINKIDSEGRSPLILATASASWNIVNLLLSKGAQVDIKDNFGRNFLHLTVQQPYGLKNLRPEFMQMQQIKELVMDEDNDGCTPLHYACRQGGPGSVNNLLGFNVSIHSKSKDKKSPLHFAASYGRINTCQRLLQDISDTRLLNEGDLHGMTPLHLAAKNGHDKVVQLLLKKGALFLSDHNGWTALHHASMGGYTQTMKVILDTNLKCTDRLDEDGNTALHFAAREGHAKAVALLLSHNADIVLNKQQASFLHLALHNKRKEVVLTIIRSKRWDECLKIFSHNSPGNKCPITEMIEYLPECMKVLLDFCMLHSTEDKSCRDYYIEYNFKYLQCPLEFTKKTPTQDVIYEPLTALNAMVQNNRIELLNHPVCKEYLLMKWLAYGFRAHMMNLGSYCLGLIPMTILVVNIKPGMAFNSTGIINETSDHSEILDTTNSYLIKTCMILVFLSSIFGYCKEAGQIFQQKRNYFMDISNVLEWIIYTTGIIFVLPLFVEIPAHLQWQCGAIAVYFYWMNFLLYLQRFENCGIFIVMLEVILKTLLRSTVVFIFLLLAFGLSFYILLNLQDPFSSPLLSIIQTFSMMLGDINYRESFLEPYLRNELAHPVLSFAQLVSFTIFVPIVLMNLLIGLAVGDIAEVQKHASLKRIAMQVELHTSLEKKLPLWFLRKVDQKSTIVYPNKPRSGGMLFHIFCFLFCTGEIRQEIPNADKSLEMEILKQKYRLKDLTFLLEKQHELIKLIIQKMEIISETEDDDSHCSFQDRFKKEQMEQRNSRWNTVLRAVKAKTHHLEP

| IC50 [nM] | Compound |
| --- | --- |
| 228 | O=C(NCc1cc(-c2ccc(C(F)(F)F)cc2)ncn1)[C@@H]1CC(F)(F)CN1S(=O)(=O)c1ccc(Cl)s1 [Example 180, (2S)-1-(5-Chloro-thiophene-2-sulfonyl)-4,4-difluoro-pyrrolidine-2-carboxylic acid [6-(4-trifluoromethyl-phenyl)-pyrimidin-4-ylmethyl]-amide] |
| 203 | O=C(NCc1cc(-c2ccc(C(F)(F)F)nc2)ncn1)[C@@H]1CCCN1S(=O)(=O)c1ccc(F)cc1 [Example 178, 1-(4-Fluoro-benzenesulfonyl)-pyrrolidine-2S-carboxylic acid [6-(6-trifluoromethyl-pyridin-3-yl)-pyrimidin-4-ylmethyl]-amide] |
| > 10000 | O=C(NCc1cc(-c2ccc(C(F)(F)F)cc2)nc(N2CCN(c3ccccc3F)CC2)c1)[C@@H]1CC(F)(F)CN1S(=O)(=O)c1ccc(Cl)s1 [Example 358, 1-[(5-Chlorothiophen-2-yl)sulfonyl]-4,4-difluoro-N-({2-[4-(2-fluorophenyl)piperazin-1-yl]-6-[4-(trifluoromethyl)phenyl]pyridin-4-yl}methyl)-L-prolinamide] |
| 35 | O=C(NCc1cc(-c2ccc(C(F)(F)F)cc2)ccn1)[C@@H]1CCCN1S(=O)(=O)c1ccc(Cl)s1 [Example 136, 1-(5-Chloro-thiophene-2-sulfonyl)-pyrrolidine-2S-carboxylic acid [4-(4-trifluoromethyl-phenyl)-pyridin-2-ylmethyl]-amide] |
| 73 | CC1CCCN1c1cc(CNC(=O)[C@@H]2CCCN2S(=O)(=O)c2ccc(Cl)s2)cc(-c2ccc(C(F)(F)F)cc2)n1 (stereo partly drawn) [Example 333, 1-[(5-Chlorothiophen-2-yl)sulfonyl]-N-({2-(2-methylpyrrolidin-1-yl)-6-[4-(trifluoromethyl)phenyl]pyridin-4-yl}methyl)-L-prolinamide] |
| 14 | O=C(NCc1cc(-c2ccc(C(F)(F)F)cc2)ncn1)[C@@H]1CCCN1S(=O)(=O)c1ccc(Cl)s1 [Example 166, 1-(5-Chlorothiophene-2-sulfonyl)-pyrrolidine-2S-carboxylic acid [6-(4-trifluoromethylphenyl)-pyrimidin-4-ylmethyl]-amide] |
| 52 | O=C(NCc1cc(-c2ccc(OC(F)(F)F)cc2)ccn1)[C@@H]1C=CCN1S(=O)(=O)c1ccc(Cl)s1 [Example 146, 1-(5-Chloro-thiophene-2-sulfonyl)-2,5-dihydro-1H-pyrrole-2S-carboxylic acid [4-(4-trifluoromethoxy-phenyl)-pyridin-2-ylmethyl]-amide] |
| 587 | O=C(NCc1cc(-c2ccc(C(F)(F)F)cc2)nc(N2CCN(Cc3ccncc3)CC2)c1)[C@@H]1CCCN1S(=O)(=O)c1ccc(Cl)s1 [Example 327, 1-[(5-Chlorothiophen-2-yl)sulfonyl]-N-({2-[4-(pyridin-4-ylmethyl)piperazin-1-yl]-6-[4-(trifluoromethyl)phenyl]pyridin-4-yl}methyl)-L-prolinamide] |
| 1060 | CC(Nc1cc(CNC(=O)[C@@H]2CC(F)(F)CN2S(=O)(=O)c2ccc(F)cc2)cc(-c2ccc(C(F)(F)F)cc2)n1)c1ccccn1 (stereo partly drawn) [Example 416, 4,4-Difluoro-1-[(4-fluorophenyl)sulfonyl]-N-({2-[(1-pyridin-2-ylethyl)amino]-6-[4-(trifluoromethyl)phenyl]pyridin-4-yl}methyl)-L-prolinamide] |
| 433 | O=C(NCc1nccc(-c2ccc(C(F)(F)F)cc2)n1)[C@@H]1CCCN1S(=O)(=O)c1ccc(F)cc1 [Example 185, (2S)-1-(4-Fluoro-benzenesulfonyl)-pyrrolidine-2-carboxylic acid [4-(4-trifluoromethyl-phenyl)-pyrimidin-2-ylmethyl]-amide] |
| 488 | CC(C)CN1CCN(c2cc(CNC(=O)[C@@H]3CC(F)(F)CN3S(=O)(=O)c3ccc(Cl)s3)cc(-c3ccc(C(F)(F)F)cc3)n2)CC1 [Example 383, 1-[(5-Chlorothiophen-2-yl)sulfonyl]-4,4-difluoro-N-({2-[4-(2-methylpropyl)piperazin-1-yl]-6-[4-(trifluoromethyl)phenyl]pyridin-4-yl}methyl)-L-prolinamide] |
| 66 | O=C(NCc1cc(-c2ccc(C(F)(F)F)cc2)ncn1)[C@@H]1CCCN1S(=O)(=O)c1ccc(Cl)cc1 [Example 152, 1-(4-Chlorobenzenesulfonyl)-pyrrolidine-2S-carboxylic acid [6-(4-trifluoromethyl-Phenyl)-pyrimidin-4-ylmethyl]-amide] |

Further lines, the compound ahead of its results:

| Compound | IC50 [nM] |
| --- | --- |
| CCN1CCN(c2nc(CNC(=O)[C@@H]3CCCN3S(=O)(=O)c3ccc(F)cc3)cc(-c3ccc(C(F)(F)F)cc3)n2)CC1 [Example 15, 1-(4-Fluoro-benzenesulfonyl)-pyrrolidine-2S-carboxylic acid [2-(4-ethyl-piperain-1-yl)-6-(4-trifluoromethyl-phenyl)-pyrimidin-4-ylmethyl]-amide] | 418 |
| O=C(NCc1cccc(-c2ccc(N3CCOCC3)cc2)c1)[C@@H]1CCCN1S(=O)(=O)c1ccc(F)cc1 [Example 94, 1-(4-Fluorobenzenesulfonyl)-pyrrolidine-2S-carboxylic acid (4′-morpholin-4-yl-biphenyl-3-ylmethyl)-amide] | 1630 |
| O=C(NCc1cccc(-c2ccc(C(F)(F)F)c(Cl)c2)c1)[C@@H]1CCCN1S(=O)(=O)c1ccc(F)cc1 [Example 72, 1-(4-Fluoro-benzenesulfonyl)-pyrrolidine-2S-carboxylic acid (3′-chloro-4′-trifluoromethyl-biphenyl-3-ylmethyl)-amide] | 17 |
| N[C@@H]1CCN(c2nc(CNC(=O)[C@@H]3CCCN3S(=O)(=O)c3ccc(Cl)s3)cc(-c3ccc(C(F)(F)F)cc3)n2)C1 [Example 40, 1-(5-Chloro-thiophene-2-sulfonyl)-pyrrolidine-2S-carboxylic acid [2-(3R-amino-pyrrolidin-1-yl)-6-(4-trifluoromethyl-phenyl)-pyrimidin-4-ylmethyl]-amide] | 1650 |
| O=C(NCc1ccnc(-c2ccc(C(F)(F)F)cc2)c1)[C@@H]1CC(F)(F)CN1S(=O)(=O)c1ccc(F)cc1 [Example 125, 4,4-Difluoro-1-(4-fluorobenzenesulfonyl)-pyrrolidine-2S-carboxylic acid [2-(4-trifluoromethylphenyl)-pyridin-4-ylmethyl]-amide] | 63 |
| CC(C)C1CCCN1c1nc(CNC(=O)[C@@H]2CCCN2S(=O)(=O)c2ccc(Cl)s2)cc(-c2ccc(C(F)(F)F)cc2)n1 (stereo partly drawn) [Example 44, 1-(5-Chloro-thiophene-2-sulfonyl)-pyrrolidine-2S-carboxylic acid [2-(2-isopropyl-pyrrolidin-1-yl)-6-(4-trifluoromethyl-phenyl)-pyrimidin-4-ylmethyl]-amide] | 12 |
| CN(C)c1nc(CNC(=O)[C@@H]2CCCN2S(=O)(=O)c2ccc(Cl)s2)cc(-c2ccc(C(F)(F)F)cc2)n1 [Example 29, 1-(5-Chloro-thiophene-2-sulfonyl)-pyrrolidine-2S-carboxylic acid [2-dimethylamino-6-(4-trifluoromethyl-phenyl)-pyrimidin-4-ylmethyl]-amide] | 12 |
| O=C(NCc1cccc(-c2ccc(C(F)(F)F)cc2)c1)[C@@H]1C[C@@H](O)CN1S(=O)(=O)c1ccc(F)cc1 [Example 122, (2S,4R)-1-(4-Fluoro-benzenesulfonyl)-4-hydroxy-pyrrolidine-2-carboxylic acid (4′-trifluoromethyl-biphenyl-3-ylmethyl)-amide] | 267 |
| Cc1ccc(-c2cccc(CNC(=O)[C@@H]3CCCN3S(=O)(=O)c3ccc(F)cc3)c2)cn1 [Example 87, 1-(4-Fluorobenzenesulfonyl)-pyrrolidine-2S-carboxylic acid 3-(6-methylpyridin-3-yl)-benzyl amide] | 1790 |
| CCOc1nc(CNC(=O)[C@@H]2CCCN2S(=O)(=O)c2ccc(Cl)s2)cc(-c2ccc(C(F)(F)F)cc2)n1 [Example 49, 1-(5-Chloro-thiophene-2-sulfonyl)-pyrrolidine-2S-carboxylic acid [2-ethoxy-6-(4-trifluoromethyl-phenyl)-pyrimidin-4-ylmethyl]-amide] | 15 |
| O=C(NCc1cc(-c2ccc(C(F)(F)F)cc2)nc(-c2cccc(C(F)(F)F)c2)n1)[C@@H]1CCCN1S(=O)(=O)c1ccc(F)cc1 [Example 5, 1-(4-Fluoro-benzenesulfonyl)-pyrrolidine-2S-carboxylic acid [2-(3-trifluoromethyl-phenyl)-6-(4-trifluoromethyl-phenyl)-pyrimidin-4-ylmethyl]-amide] | 9 |
